According to patent US7662810B2, “2-arylmethylazetidine carbapenem derivatives and preparation thereof” (Korea Research Institute of Chemical Technology, priority 2004, dated 2010):
Converted amounts (≈) assume the structure as drawn. Read-outs that look alike come from different tables or passages of the source.

Columns and labels:
[1] = biological target: T1, Dihydropeptidase-1 (DHP-1) (Sus scrofa, UniProt P22412)
T1 sequence (P22412 17-384): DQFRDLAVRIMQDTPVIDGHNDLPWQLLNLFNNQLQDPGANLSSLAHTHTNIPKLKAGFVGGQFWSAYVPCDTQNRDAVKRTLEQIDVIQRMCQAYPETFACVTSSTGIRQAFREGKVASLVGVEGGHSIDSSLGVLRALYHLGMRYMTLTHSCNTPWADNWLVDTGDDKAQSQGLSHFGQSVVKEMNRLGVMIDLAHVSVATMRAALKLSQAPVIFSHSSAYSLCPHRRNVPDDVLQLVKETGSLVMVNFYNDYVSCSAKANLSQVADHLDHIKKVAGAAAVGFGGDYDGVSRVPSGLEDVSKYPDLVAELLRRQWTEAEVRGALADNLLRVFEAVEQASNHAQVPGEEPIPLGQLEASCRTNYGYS
Method: (§3) The rate of degradation of the inventive compounds by the action of DHP-1 enzyme extracted from hog kidney was determined as follow.
(§4) 0.2 unit of the enzyme was allowed to react with the above solution at 30° C., and the absorbance at 299 nm of the remaining medicament was measured to determine the degradation rate. The absorbance was measured at 0, 0.5, 1, 2 and 4 hour points, and T1/2, the time when the concentration of the medicament become the half, was obtained by regression analysis.

Acute Toxicity Test = experiment: Acute Toxicity Test
Method: The acute toxicity of the compound of Example 14 was tested using several groups of ICR mice each of 10 mice.

[2] = system: Staphylococcus aureus 256E; experiment: Measurement of Minimum Inhibitory Concentration (MIC), MRSA; format: cell-based; details: Staphylococcus aureus 256E
Method: (§1) The antibacterial activities of the compounds of the present invention prepared in the above Examples against Gram-positive and Gram-negative bacteria, MRSA and QRS were tested as follows.
(§2) Respective bacterial strains were inoculated into 3 ml of Fleisch extract broth (beef extract 1%, peptone 1%, NaCl 0.3%, Na2HPO4.12H2O 0.2%, pH 7.4-7.5. 10% horse serum was supplemented for Streptococcus pyogenes and S. facium) and cultured on a shaking incubator at 37° C. for 18 hours. About 10^4 CFU/spot of the cultured bacterial strains were inoculated onto Müller-Hinton agar plates containing serial double dilutions (final concentration of 0.002 to 100 μg/ml) of a test compound employing an automatic inoculator (Dynatech, USA), and incubated at 37° C. for 18 hours. When the incubation was completed, the minimum inhibitory concentration was determined. Meropenem (Yuhan corporation, Korea) and vancomycin (Cj Inco., Korea) were used as standard antibiotics, respectively.

[3] = system: Staphylococcus aureus 121E; experiment: as above; format: cell-based
Method: as §1, §2

[4] = system: Staphylococcus aureus 694E; experiment: as above; format: cell-based; details: Staphylococcus aureus 694E
Method: as §1, §2

[5] = system: Staphylococcus aureus 692E; experiment: as above; format: cell-based; details: Staphylococcus aureus 692E
Method: as §1, §2

[6] = system: Staphylococcus aureus 88E; experiment: as above; format: cell-based
Method: as §1, §2

[7] = system: Staphylococcus aureus 693E; experiment: as above; format: cell-based; details: Staphylococcus aureus 693E
Method: as §1, §2

[8] = system: Staphylococcus aureus 208E; experiment: as above; format: cell-based; details: Staphylococcus aureus 208E
Method: as §1, §2

[9] = system: Staphylococcus aureus 695E; experiment: as above; format: cell-based; details: Staphylococcus aureus 695E
Method: as §1, §2

[10] = system: Staphylococcus aureus 690E; experiment: as above; format: cell-based; details: Staphylococcus aureus 690E
Method: as §1, §2

[11] = system: Staphylococcus aureus 697E; experiment: as above; format: cell-based; details: Staphylococcus aureus 697E
Method: as §1, §2

[12] = biological target: T1, Dihydropeptidase-1 (DHP-1); experiment: Sensitivity Assay Against Dihydropeptidase-1 (DHP-1); details: pig, DHP-1 enzyme extracted from hog kidney
Method: as §3, §4

In the case of `COc1ccc(CN2CC(SC3=C(C(=O)[O-])N4C(=O)[C@H]([C@@H](C)O)[C@H]4[C@H]3C)C2)cc1.[K+]` [Exam. 14, Potassium(1R,5S,6S)-2-[1-(4-methoxybenzyl)-azetidine-3-yl-thio]-6-[(1R)-1-hydroxylethyl]-1-methylcarbapen-2-em-3-carboxylate], the “T1/2 (time when the concentration of the medicament become the half)” value [1] is reported as 19.88, the death (Acute Toxicity Test; ICR mice, 500, 1,000 and 2,000 mg/kg intraperitoneally, 7 days) is reported as “no mice died” and the LD50 (Acute Toxicity Test; ICR mice, intraperitoneally injected, observed for 7 days) is reported as “higher than 2,000 mg/kg”. The MIC [2] was 0.025 mg/L, the MIC ([3]; Staphylococcus aureus 121E) was 0.098 mg/L and the MIC [4] was 0.098 mg/L. It also gave an MIC [5] of 0.391 mg/L, an MIC ([6]; Staphylococcus aureus 88E) of 0.1951 mg/L and an MIC [7] of 0.391 mg/L. It also gave an MIC [8] of 0.049 mg/L, an MIC [9] of 0.098 mg/L and an MIC [10] of 0.391 mg/L. The MIC [11] was 0.195 mg/L.

With `C[C@@H](O)[C@H]1C(=O)N2C(C(=O)O)=C(S[C@@H]3CN[C@H](C(=O)N(C)C)C3)[C@H](C)[C@H]12` [Meropenem, reference compound] the half-life at 500 μg/ml [12] was 18.3 h, the MIC ([2]; read-out: MIC) was 0.049 mg/L (≈ 0.128 µM) and the MIC ([3]; Staphylococcus aureus) was 0.195 mg/L (≈ 0.509 µM). For the same compound, the MIC ([4]; read-out: MIC) was 6.25 mg/L (≈ 16.3 µM), the MIC ([5]; read-out: MIC) was 0.098 mg/L (≈ 0.256 µM) and the MIC ([6]; Staphylococcus aureus) was 0.195 mg/L (≈ 0.509 µM). It also gave an MIC ([7]; read-out: MIC) of 6.25 mg/L (≈ 16.3 µM), an MIC ([8]; read-out: MIC) of 0.098 mg/L (≈ 0.256 µM) and an MIC ([9]; read-out: MIC) of 0.781 mg/L (≈ 2.04 µM). It also gave an MIC ([10]; read-out: MIC) of 3.12 mg/L (≈ 8.15 µM) and an MIC ([11]; read-out: MIC) of 0.098 mg/L (≈ 0.256 µM).
